Test results reported in patent publication US12071436B2, “Anti-parasitic compounds and uses thereof” (Memorial Sloan-Kettering Cancer Center, priority 2016, dated 2024).
≈ marks a conversion by molar mass, not a printed value. Entries after “also recorded” stand apart in the source; their conditions may differ. Read-outs that look alike come from different tables or passages of the source.

Key:
P. falciparum Dd2 = assay: Anti-plasmodial growth inhibition, SYBR green I-based DNA quantification; type: cell-based; conditions: Plasmodium falciparum, 72 h incubation, n=3
Procedure: (§1) Select compounds described herein were evaluated for structure-activity analyses for anti-plasmodial activity in vitro. For Dd2 EC50 (M), calculations were for n=3. For HepG2 EC50 (M), calculations were for n=1. For the human microsomal stability determination, t was 60 minutes.
Different dilutions of the compound in RPMI 1640 (Life Technologies) from a stock of 10 mM in dimethyl sulfoxide (DMSO) were added to the culture at a 1% parasitemia and 2% hematocrit in 96-well black plates (Santa Cruz Biotechnology). Maximum DMSO concentration in the culture never exceeded 0.25%. Chloroquine at 1 μM was used as a positive control to determine the baseline value. Following 72 h incubation at 37° C., the ability of the compounds to inhibit growth of the parasite was determined by a SYBR green I-based DNA quantification assay (See Bennett et al., 2004, Chemother. 48, 1807-1810; see also Johnson et al., 2007, Antimicrob. Agents. Chemother. 51, 1926-1933; Smilkstein et al., 2004, Antimicrob. Agents. Chemother. 48, 1803-1806). EC50 was calculated (n=3) from a dose response curve that was generated from a concentration range of 0-20 μM using GraphPad Prism v5.0.

[1] = system: HepG2 human hepatoma cells; assay: HepG2 cytotoxicity, MTS cell proliferation assay; type: cell-based; conditions: 48 h, n=1
Procedure: as §1
Selected compounds were evaluated for cytotoxicity using HepG2 human hepatoma cells. A 384-well clear bottom plate was seeded with 2,500 cells/well and incubated for 24 h. Serial dilutions of the compound (were added to the plate and plates were incubated for an additional 48 h. Viability of cells were assessed by MTS [(3-(4,5-dimethylthiazol-2-yl)-5-(3-carboxymethoxyphenyl)-2-(4-sulfophenyl)-2H-tetrazolium) cell proliferation assay (CellTiter 96® Aqueous non-radioactive cell proliferation assay, Promega) (See Cory et al., Cancer Communications, 3, 1991, p. 207-212).

Kinetic solubility assay = type: physicochemical; conditions: 24 °C, kinetic from dmso stock, ambient temperature
[2] = PAMPA, Corning Gentest Pre-coated PAMPA plate; type: in vitro ADME; conditions: 1×PBS, pH 7.4, five hours, ambient temperature, read-out: Permeability (log Pe, in [cm/s]) (converted)
Procedure: For selected compounds, a Parallel artificial membrane permeability assay (PAMPA) analysis was conducted. The 10 mM DMSO stock solutions for selected compounds (Tan003-M03, ent-Tan003-M03, Tan003-O08, and Tan003-D20) were diluted 50 fold with 1×PBS, pH 7.4, for a dose concentration of 200 µM and a volume of 300 μL in the Donor compartment of the Corning Gentest Pre-coated PAMPA plate. After preparation of the Donor plate, any precipitation was noted. The Acceptor compartment was filled with 1×PBS (200 μL), pH 7.4. After careful assembly of the PAMPA plate, it was left to incubate for five hours in the dark at ambient temperature. The previously prepared solubility assay was used to measure the initial concentration of the sample in buffer (C0). After the incubation was complete, the PAMPA plate was disassembled, and the samples were transferred from the Donor and Acceptor plates to 96-well plates for analysis by chemiluminescent nitrogen detection (CLND. The C0 plate was filtered prior to analysis by CLND.

[3] = Human microsomal stability; type: in vitro ADME; conditions: t was 60 minutes
Procedure: as §1
To determine microsomal stability for selected compounds, a reaction plate was prepared by adding 691.25 μL, pre-warmed (37° C.) microsomal solution (0.63 mg/mL protein in 100 mM KPO4 with 1.3 mM EDTA) to an empty well of a 96 well plate and maintained at 37° C. The diluted 0.1 mM compound (8.75 μL) is added to the microsomal solution in the reaction plate and mixed thoroughly by repeated pipetting. The resulting solutions were pre-incubated for 5 minutes at 37° C. before preparing the T=0 plates. For the T=0 plates, an aliquot (160 μL) of each reaction solution was added to an empty well of a 96 well plate, as an exact replicate of the Reaction Plate. Cold (4° C.) MeOH (400 μL) is added to each well and mixed thoroughly by repeated pipetting. NADPH Regeneration solution (40 μL) is added to each well and mixed thoroughly by repeated pipetting. For the T=60 minute Incubation Plates (without NADPH), an aliquot (160 μL) of each reaction solution was added to an empty well of a 96 well plate, as an exact replicate of the Reaction Plate. LC-MS grade H2O (40 μL) is added to each well and mixed thoroughly by repeated pipetting. The plate was sealed and incubated at 37° C. for the incubation period. After incubation, cold (4° C.) MeOH (400 μL) is added to each well and mixed thoroughly by repeated pipetting. For the T=60 minute Incubation Plates, NADPH (95 μL) was added to the remaining solution (microsomes+test compound) in each well in the previously-prepared reaction plate to initiate the reaction. The plate was sealed and incubated at 37° C. for the incubation period. An aliquot (100 μL) was removed from each well at the desired time point and dispensed into a well of a 96-well plate. 200 μL of cold (4° C.) MeOH was […] the reaction.

[4] = system: synchronized parasite cultures (Dd2); assay: Stage specific parasite inhibition (Giemsa smears, flow cytometry); type: cell-based, P. falciparum; conditions: for parasite stage development, Giemsa staining: 3×IC50, synchronized Dd2 cultures treated at ring, trophozoite or schizont stages, smears every 12 hours; for parasite stage progression, flow cytometry: 3×IC50, synchronized Dd2 cultures, YoYo-I DNA staining
Procedure: Select compounds described herein were evaluated for stage specific inhibition of parasite development. Tightly synchronized parasite cultures (Dd2) were treated with 3×IC50 concentrations of compound Tan003-M03 (“M03”), compound ent-Tan003-D20 (“D20-ent”), compound Tan003-O08 (“008”) or compound Tan002-O12 (“012”) at early ring, late ring, trophozoite, and schizont stages. Every 12 hours, Giemsa smears were made for treated cultures and samples were also collected and fixed for flow cytometry. […] Prior to flow analysis, fixed samples were permeabilized, RNase treated, and stained with YoYo-I as described in Bouillon et al., 2013. […] As the parasite matures, the DNA content increases and peaks start to spread to the right because of schizogony. Following reinvasion parasitemia increases in the next growth cycle, which is represented by an increase in peak height.

Asynchronous cultures = assay: Parasitocidal or parasitostatic determination (rate of killing); type: cell-based; conditions: for parasitocidal activity (rate of killing): 3×IC50, asynchronous cultures treated for 12, 24, 48, or 72 hours, washed, monitored for continued growth
Procedure: Asynchronous cultures were grown and treated with compounds, vehicle control or Dihydroartemisinin at 3×IC50 to determine their respective rate of killing curves. Cultures were treated for 12, 24, 48, or 72 hours with compound, washed several times to remove any inhibitor, and monitored for continued growth for several days. […] Overall, the exemplary compounds including, but not limited to, Tan003-M03 and ent-Tan003-D20 are parasitocidal agents blocking parasite maturation at the segmenter stage preventing egress, a novel mechanism of action absent among current antimalarials.

[5] = Plasma pharmacokinetics and liver distribution study in female BALB/c mice; type: in vivo, mouse; conditions: 100 mg/kg, female BALB/c mice; for Tmax: mouse, plasma, read-out: Tmax (plasma)
Procedure: A plasma pharmacokinetics and liver distribution study of selected compounds, including Pyrrolopyridine-008 (2015-foleyc-216), Pyrrolopyridine-D20-ent (2015-foleyc-217), and Pyrrolopyridine-M03 (2015-foleyc-218), in female BALB/c mice was conducted following a single intraperitoneal and oral administration. […] The blood samples were collected from a set of […] mice at each time point in labeled micro centrifuge tube containing K2EDTA as anticoagulant. Plasma samples were separated by centrifugation at 4000 rpm for 10 min and stored below −70° C. until bioanalysis. After collection of blood sample, animals were humanely euthanized by carbon dioxide asphyxiation to collect liver from Group 1 and Group 2 at all the time points. The collected tissues were rinsed in PBS and were homogenized with nine times of liver weight in ice cold phosphate buffer saline (pH 7.4) and stored below −70° C. until bio-analysis. Total homogenate volume was ten times the tissue weight. All samples were processed for analysis by protein precipitation using acetonitrile and analyzed with fit-for-purpose LC-MS/MS method (LLOQ: 2.01 ng/mL for plasma and 50.30 ng/g for liver). Pharmacokinetic parameters were calculated using the non-compartmental analysis tool of Phoenix WinNonlin® (Version 6.3).

[6] = 50 mM NaPO4 pH 6.5 buffer, pH 6.5, aqueous buffer, 50 mM NaPO4 pH6.5, 2.0% DMSO, read-out: Solubility LogS, at pH 6.5 (converted)
[7] = 1×PBS pH 7.4 buffer, pH 7.4, aqueous buffer, 1×PBS pH7.4, 2.0% DMSO, read-out: Solubility LogS, at pH 7.4 (converted)
[8] = SGF pH 1.2 buffer, pH 1.2, simulated gastric fluid, SGF pH1.2, 2.0% DMSO, read-out: Solubility LogS, at pH 1.2 (converted)

SMILES | EC50 (P. falciparum Dd2) [nM] | EC50 [1] [nM] | solubility at 24 h (Kinetic solubility assay; [6]) [µM] | solubility at 24 h (Kinetic solubility assay; [7]) [µM] | solubility at 24 h (Kinetic solubility assay; [8]) [µM] | Papp at 5 h, 200 µM [2] [×10⁻⁶ cm/s] | Human microsomal stability (%) [3] [%] | parasite stage development, Giemsa staining [4] | parasite stage progression, flow cytometry [4] | parasitocidal activity (rate of killing) (Asynchronous cultures) | viable parasites in asynchronous culture (Asynchronous cultures; treatment for 72 hours) | Tmax ([5]; ip, single intraperitoneal dose) [min] | Tmax ([5]; single oral dose) [min] | plasma concentrations quantifiable till ([5]; single intraperitoneal dose) [h] | plasma concentrations quantifiable till ([5]; single oral dose) [h]
CC(C)(C)[S@@+]([O-])N1Cc2cc(C(=O)NCc3ccc4c(c3)OCO4)nc(-c3cccc(-c4cccnc4)c3)c2[C@H]1CCO [Tan003-008] | 530 ± 110 | 41000 | 10 (≈ 5.99 µg/mL) | 12.6 (≈ 7.54 µg/mL) | 158 (≈ 94.9 µg/mL) | 1.82 | < 1 | – | – | – | – | – | – | – | –
CC(C)NC(=O)N1Cc2cc(C(=O)NCC(F)(F)F)nc(-c3cccc(-c4cc5ccccc5o4)c3)c2[C@@H]1CCO [ent-Tan003-M03] | 200 ± 20 | – | – | 6.31 (≈ 3.57 µg/mL) | – | – | 62.7 | – | – | – | – | – | – | – | –
CC(C)NC(=O)N1Cc2cc(C(=O)NCC(F)(F)F)nc(-c3cccc(-c4cc5ccccc5o4)c3)c2[C@H]1CCO [Tan003-M03, (R)-4-(3-(benzofuran-2-yl)phenyl)-3-(2-hydroxyethyl)-N^2-isopropyl-N^6-(2,2,2-trifluoroethyl)-1,3-dihydro-2H-pyrrolo[3,4-c]pyridine-2,6-dicarboxamide] | 240 ± 70 | 45000 | 6.31 (≈ 3.57 µg/mL) | 7.94 (≈ 4.5 µg/mL) | 7.94 (≈ 4.5 µg/mL) | 3.98 | 61.5 | inhibit parasite development before egress | block parasite stage progression prior to egress | parasitocidal and prohibit progression beyond segmenter stages; also recorded: parasitocidal and prevent any parasite development beyond the schizont stage when treated for at least 48 hours | – | – | – | – | –
CC(C)(C)[S@@+]([O-])N1Cc2cc(C(=O)NCc3ccc4c(c3)OCO4)nc(-c3cccc(-c4cccnc4)c3)c2[C@H]1CCO [Tan003-O08, (R)-N-(benzo[d][1,3]dioxol-5-ylmethyl)-2-((R)-tert-butylsulfinyl)-3-(2-hydroxyethyl)-4-(3-(pyridin-3-yl)phenyl)-2,3-dihydro-1H-pyrrolo[3,4-c]pyridine-6-carboxamide] | – | – | – | – | – | – | – | inhibit parasite development before egress | block parasite stage progression prior to egress | – | significantly decreases viable parasites | – | – | – | –
CC(C)(C)[S@+]([O-])N1Cc2cc(C(=O)NCc3ccccc3F)nc(-c3cccc(-c4cccnc4)c3)c2[C@@H]1CCO [Tan003-D20] | 380 ± 20 | – | 6.31 (≈ 3.61 µg/mL) | 7.94 (≈ 4.55 µg/mL) | 158 (≈ 90.8 µg/mL) | 2.4 | <1 | – | – | – | – | – | – | – | –
CC(C)(C)[S@@+]([O-])N1Cc2cc(C(=O)NCc3ccccc3F)nc(-c3cccc(-c4cccnc4)c3)c2[C@H]1CCO [ent-Tan003-D20, (R)-2-((R)-tert-butylsulfinyl)-N-(2-fluorobenzyl)-3-(2-hydroxyethyl)-4-(3-(pyridin-3-yl)phenyl)-2,3-dihydro-1H-pyrrolo[3,4-c]pyridine-6-carboxamide] | 380 ± 90 | 60000 | – | – | – | – | – | inhibit parasite development before egress | block parasite stage progression prior to egress | parasitocidal and prohibit progression beyond segmenter stages; also recorded: parasitocidal and prevent any parasite development beyond the schizont stage when treated for at least 48 hours | – | – | – | – | –
CCOC(=O)c1cc2c(c(-c3ccccc3)n1)[C@@H](CCO)N([S@+]([O-])C(C)(C)C)C2 [Tan002-O12, Ethyl (R)-2-((R)-tert-butylsulfinyl)-3-(2-hydroxyethyl)-4-phenyl-2,3-dihydro-1H-pyrrolo[3,4-c]pyridine-6-carboxylate] | 890 ± 130 | > 100000 | – | – | – | – | – | inhibit parasite development before egress | block parasite stage progression prior to egress | not seen; also recorded: did not show any parasitocidal activity | – | 60 | 30 | 12 | 12
